# Measured values taken from patent US10239836B2, “Benzenecarbothioccyclopenta[c] pyrrole-1,3-dione compounds and process for synthesis thereof” (Council of Scientific & Industrial Research, priority 2014, dated 2019).
# Where two headings read alike, the source gives them in different places.
# Columns and labels:
# [1] = Cytotoxicity assay (MTT viability); assay type: cell-based, Mouse; details: mouse; RAW 264.7 cells, MTT, 24 h treatment, serum free
# Method: (§1) Mouse macrophage cell line RAW 264.7 was maintained in laboratory at 37° C. in
# (§2) RPMI-1640 media supplemented with 10% heat-inactivated fetal bovine serum (FBS) and penicillin/streptomycin.
# Viability of cultured cells was determined by (4,5-dimethylthiazol-2-yl)-2,5-diphenyltetrazolium bromide (MTT; Sigma) as described earlier (1). RAW 264.7 was seeded in triplicate at a density of 2×10^4 cells per well on a 96-well plate. […] MTT solution (0.5 mg/ml) was then added to each well and incubate for 4 h at 37° C. At the end of the incubation period, the medium was removed and the resulting purple formazan was solubilized with acidic isopropanol (0.1 N HCl in absolute isopropanol), and the absorbance was read at 570 nm using Biorad Microplate reader (Biorad, USA).
# [2] = tested on: LPS induced NO generation in RAW 264.7 cells; test: Inhibition of LPS induced NO generation (nitrite, Griess reagent); assay type: cell-based, Mouse; details: for IC50: Mus musculus, read-out: NO inhibition (B) IC50; for Selectivity index (A/B): cytotoxicity IC50 / NO inhibition IC50, RAW 264.7 cells
# Method: as §1, §2
# Nitrite, a stable oxidized product of NO, was measured in culture supernatant using Griess reagent (Sigma Aldrich) according to a previously reported method (2). After overnight seeding in 96-well plate (2×10^4 cells/well), RAW 264.7 cell was treated with lipopolysaccharide (LPS; Sigma) at a concentration of 1 μg/ml along with different doses of compounds (as determined from cytotoxicity assay) in serum-free culture for 24 h. Following treatment, media was collected and centrifuged at 2,000 rpm for 5 min to remove cellular debris. 50 μl of this media was then reacted with equal volume of Griess reagent for 15 min at room temperature in dark and absorbance was taken at 540 nm using Microplate reader (Biorad, USA). Nitrite concentrations were determined using standard solutions of sodium nitrite prepared in cell culture medium.
# [3] = RAW264.7, RAW 264.7 cells, LPS 1 μg/ml, 24 h, serum-free
Structure (SMILES),melting point [°C],IC50 at 24 h [1] [µM],"IC50 [2, 3] [µM]",Selectivity index (A/B) [2],"IC50 ([2]; RAW264.7, 24 h) [µM]"
O=C1NC(=O)C2(SC(=O)c3ccc(F)cc3)CCC=C12 (stereo not drawn),191 to 192,–,–,–,–
O=C1NC(=O)C2=C1CCC2SC(=O)c1ccccc1 (stereo not drawn),149 to 151,–,–,–,–
"O=C(S[C@@]12CC[C@@H](O)[C@@H]1C(=O)NC2=O)c1ccc(O)cc1 (racemic) [(±)-2, S-((3aS*,6R*,6aR*)-6-hydroxy-1,3-dioxohexahydrocyclopenta[c]pyrrol-3a(1H)-yl) 4-hydroxybenzothioate]",–,434,225,1.925,–
"CC(=O)OC1CCC2=C1C(=O)NC2=O (racemic) [Compound 5, 1,3-dioxo-1,2,3,4,5,6-hexahydrocyclopenta[c]pyrrol-4-yl acetate]",–,616,42,14.67,–
O=C(S[C@@]12CC[C@@H](O)[C@@H]1C(=O)NC2=O)c1ccccc1O (relative stereo),213 to 216,–,–,–,–
"CC(=O)S[C@]12CC[C@@H](O)[C@H]1C(=O)NC2=O (relative stereo) [Compound 7, S-((3aR*,6R*,6aS*)-6-Hydroxy-1,3-dioxohexahydrocyclopenta[c]pyrrol-3a(1H)-yl) ethanethioate]",–,558,148,3.7762,–
"CC(=O)S[C@@]12CC[C@@H](O)[C@@H]1C(=O)NC2=O (relative stereo) [Compound 8, S-((3aS*,6R*,6aR*)-6-Hydroxy-1,3-dioxohexahydrocyclopenta[c]pyrrol-3a(1H)-yl) ethanethioate]",120 to 129,857,833,1.029,–
"O=C(Cc1ccccc1)S[C@]12CC[C@@H](O)[C@H]1C(=O)NC2=O (relative stereo) [Compound 9, S-((3aR*,6R*,6aS*)-6-Hydroxy-1,3-dioxohexahydrocyclopenta[c]pyrrol-3a(1H)-yl) 2-phenylethanethioate]",–,834,132,6.322,–
"O=C(Cc1ccccc1)S[C@@]12CC[C@@H](O)[C@@H]1C(=O)NC2=O (relative stereo) [Compound 10, S-((3aS*,6R*,6aR*)-6-Hydroxy-1,3-dioxohexahydrocyclopenta[c]pyrrol-3a(1H)-yl) 2-phenylethanethioate]",–,774,143,5.418,–
"O=C(S[C@@]12CC[C@@H](O)[C@@H]1C(=O)NC2=O)c1ccc(F)cc1 (relative stereo) [Compound 11, S-((3aS*,6R*,6aR*)-6-Hydroxy-1,3-dioxohexahydrocyclopenta[c]pyrrol-3a(1H)-yl) 4-fluorobenzothioate]",184 to 186,474,318,1.49,–
"O=C(S[C@@]12CC[C@@H](O)[C@@H]1C(=O)NC2=O)c1cccs1 (relative stereo) [Compound 12, S-((3aS*,6R*,6aR*)-6-Hydroxy-1,3-dioxohexahydrocyclopenta[c]pyrrol-3a(1H)-yl) thiophene-2-carbothioate]",–,10900,36.6,297.0519,–
"O=C(S[C@@]12CC[C@H](O)[C@@H]1C(=O)NC2=O)c1ccccc1Cl (relative stereo) [Compound 13, S-((3aS*,6S*,6aR*)-6-Hydroxy-1,3-dioxohexahydrocyclopenta[c]pyrrol-3a(1H)-yl) 2-chlorobenzothioate]",173 to 174,668,127,5.245,–
"O=C(S[C@@]12CC[C@@H](O)[C@@H]1C(=O)NC2=O)c1ccccc1Cl (relative stereo) [Compound 14, S-((3aS*,6R*,6aR*)-6-Hydroxy-1,3-dioxohexahydrocyclopenta[c]pyrrol-3a(1H)-yl) 2-chlorobenzothioate]",154 to 158,717,178,4.022,–
"O=C(S[C@]12CC[C@@H](O)[C@H]1C(=O)NC2=O)c1ccccc1 (relative stereo) [Compound 15, S-((3aR*,6R*,6aS*)-6-Hydroxy-1,3-dioxohexahydrocyclopenta[c]pyrrol-3a(1H)-yl) benzothioate]",185 to 186,479,72.4,6.622,–
"O=C(S[C@@]12CC[C@@H](O)[C@@H]1C(=O)NC2=O)c1ccccc1 (relative stereo) [Compound 16, S-((3aS*,6R*,6aR*)-6-Hydroxy-1,3-dioxohexahydrocyclopenta[c]pyrrol-3a(1H)-yl) benzothioate]",180 to 182,17100,65.2,261.7025,–
"O=C(Cc1ccccc1)S[C@]12CCC[C@H]1C(=O)NC2=O (relative stereo) [Compound 19, S-((3aR*,6aS*)-1,3-Dioxohexahydrocyclopenta[c]pyrrol-3a(1H)-yl) 2-phenylethanethioate]",–,426,56.9,7.48,–
"O=C(SC1CC[C@]2(SC(=O)c3ccc(F)cc3)C(=O)NC(=O)[C@H]12)c1ccc(F)cc1 (relative stereo) [Compound 23, S,S′-((3aR*,6aR*)-1,3-Dioxohexahydrocyclopenta[c]pyrrole-3a,6(1H)-diyl) bis(4-fluorobenzothioate)]",–,211,–,2.142,98.3
"CC(=O)SC1CC[C@]2(SC(C)=O)C(=O)NC(=O)[C@H]12 (relative stereo) [Compound 28, S,S′-((3aR*,6aR*)-1,3-Dioxohexahydrocyclopenta[c]pyrrole-3a,6(1H)-diyl) diethanethioate]",–,10000,–,505.4343,19.8
"CC(=O)OC1CC[C@]2(SC(=O)Cc3ccccc3)C(=O)NC(=O)[C@H]12 (relative stereo) [Compound 32, (3aS*,6aR*)-1,3-Dioxo-6a-((2-phenylacetyl)thio) octahydrocyclopenta[c]pyrrol-4-yl acetate]",–,1610,–,23.57,68.2
"CC(=O)OC1CC[C@]2(SC(=O)c3ccc(F)cc3)C(=O)NC(=O)[C@H]12 (relative stereo) [Compound 33, (3aS*,6aR*)-6a-((4-Fluorobenzoyl)thio)-1,3-dioxooctahydrocyclopenta[c]pyrrol-4-yl acetate]",–,12100,34.3,353.8076,–
"CC(=O)OC1CC[C@]2(SC(=O)c3ccccc3Cl)C(=O)NC(=O)[C@H]12 (relative stereo) [Compound 34, (3aS*,6aR*)-6a-((2-Chlorobenzoyl)thio)-1,3-dioxooctahydrocyclopenta[c]pyrrol-4-yl acetate]",–,9080,101,89.51,–
"CC(=O)OC1CC[C@]2(SC(=O)c3ccccc3)C(=O)NC(=O)[C@H]12 (relative stereo) [Compound 35, (3aS*,6aR*)-6a-(Benzoylthio)-1,3-dioxooctahydrocyclopenta[c]pyrrol-4-yl acetate]",–,1910,64.3,29.74,–
"O=C1NC(=O)C2=C1CCC2O (stereo in doubt) [(+)-4, (S)-4-Hydroxy-5,6-dihydrocyclopenta[c]pyrrole-1,3(2H,4H)-dione]",–,217,95.9,2.26,–
"O=C1NC(=O)C2=C1CCC2O (stereo in doubt) [(−)-4, (R)-4-Hydroxy-5,6-dihydrocyclopenta[c]pyrrole-1,3(2H,4H)-dione]",–,319,121,2.631,–
"O=C(S[C@@]12CC[C@H](O)[C@@H]1C(=O)NC2=O)c1ccc(O)cc1 [(+)-1, S-((3aS,6S,6aR)-6-hydroxy-1,3-dioxohexahydrocyclopenta[c]pyrrol-3a(1H)-yl) 4-hydroxybenzothioate]",–,1020,71.8,14.14,–
"O=C(S[C@]12CC[C@H](O)[C@H]1C(=O)NC2=O)c1ccc(O)cc1 [(−)-2, S-((3aR,6S,6aS)-6-hydroxy-1,3-dioxohexahydrocyclopenta[c]pyrrol-3a(1H)-yl) 4-hydroxybenzothioate]",–,1380,140,9.85,–
"O=C(S)c1ccc(O)cc1 [Compound 6, 4-hydroxybenzothioic S-acid]",–,2910,127,22.99,–
